{
  "source": "patent US20240262826A1",
  "about": "“WILD TYPE KIT INHIBITORS” (Blueprint Medicines Corporation, priority 2022, published 2024)",
  "key": {"wild type c-kit": {"target": "wild type c-kit (Homo sapiens (Human), UniProt P10721)", "sequence (P10721 26-976)": "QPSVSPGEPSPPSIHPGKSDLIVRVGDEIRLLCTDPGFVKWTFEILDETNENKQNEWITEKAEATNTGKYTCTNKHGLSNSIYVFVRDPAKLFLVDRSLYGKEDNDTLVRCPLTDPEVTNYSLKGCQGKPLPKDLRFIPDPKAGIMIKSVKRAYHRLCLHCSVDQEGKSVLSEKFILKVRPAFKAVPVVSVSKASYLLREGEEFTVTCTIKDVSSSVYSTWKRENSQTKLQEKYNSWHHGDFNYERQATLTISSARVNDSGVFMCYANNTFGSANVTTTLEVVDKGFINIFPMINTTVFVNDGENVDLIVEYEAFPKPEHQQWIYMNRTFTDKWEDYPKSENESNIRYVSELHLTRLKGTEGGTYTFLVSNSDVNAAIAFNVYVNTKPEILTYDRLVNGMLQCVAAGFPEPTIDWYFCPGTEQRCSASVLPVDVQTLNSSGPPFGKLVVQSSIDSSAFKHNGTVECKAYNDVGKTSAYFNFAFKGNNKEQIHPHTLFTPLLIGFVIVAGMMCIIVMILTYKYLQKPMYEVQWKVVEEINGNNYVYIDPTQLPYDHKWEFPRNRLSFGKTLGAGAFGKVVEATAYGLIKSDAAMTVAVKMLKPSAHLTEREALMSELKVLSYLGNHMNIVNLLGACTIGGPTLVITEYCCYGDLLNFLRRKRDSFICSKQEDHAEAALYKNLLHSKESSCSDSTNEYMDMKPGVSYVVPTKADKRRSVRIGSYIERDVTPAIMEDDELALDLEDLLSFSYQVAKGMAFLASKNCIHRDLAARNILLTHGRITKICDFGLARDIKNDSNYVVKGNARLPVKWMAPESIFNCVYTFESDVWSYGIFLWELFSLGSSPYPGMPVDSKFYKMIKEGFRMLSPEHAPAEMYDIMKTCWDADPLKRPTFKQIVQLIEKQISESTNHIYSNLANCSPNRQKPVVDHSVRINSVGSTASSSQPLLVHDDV", "assay": "PathScan phospho c-kit (Tyr719) sandwich ELISA in SCF-stimulated M-07e cells (pKIT assay)", "type": "cell-based", "details": "ELISA assay (values not marked *)", "outline": "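Serum- and GM-CSF-starved M-07e cells (4 h) pretreated 60 min at 37 °C with an 8-point compound series in duplicate (0.25% DMSO), then stimulated with human SCF (500 ng/mL stock) 10 min at room temperature. Lysate c-kit Tyr719 phosphorylation quantified by sandwich ELISA with TMB read-out; IC50 from 4-parameter logistic fit.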"}, "[1]": {"target": "human P-glycoprotein (P-gp, MDR1) (Homo sapiens (Human), UniProt P08183)", "sequence (P08183 whole entry)": "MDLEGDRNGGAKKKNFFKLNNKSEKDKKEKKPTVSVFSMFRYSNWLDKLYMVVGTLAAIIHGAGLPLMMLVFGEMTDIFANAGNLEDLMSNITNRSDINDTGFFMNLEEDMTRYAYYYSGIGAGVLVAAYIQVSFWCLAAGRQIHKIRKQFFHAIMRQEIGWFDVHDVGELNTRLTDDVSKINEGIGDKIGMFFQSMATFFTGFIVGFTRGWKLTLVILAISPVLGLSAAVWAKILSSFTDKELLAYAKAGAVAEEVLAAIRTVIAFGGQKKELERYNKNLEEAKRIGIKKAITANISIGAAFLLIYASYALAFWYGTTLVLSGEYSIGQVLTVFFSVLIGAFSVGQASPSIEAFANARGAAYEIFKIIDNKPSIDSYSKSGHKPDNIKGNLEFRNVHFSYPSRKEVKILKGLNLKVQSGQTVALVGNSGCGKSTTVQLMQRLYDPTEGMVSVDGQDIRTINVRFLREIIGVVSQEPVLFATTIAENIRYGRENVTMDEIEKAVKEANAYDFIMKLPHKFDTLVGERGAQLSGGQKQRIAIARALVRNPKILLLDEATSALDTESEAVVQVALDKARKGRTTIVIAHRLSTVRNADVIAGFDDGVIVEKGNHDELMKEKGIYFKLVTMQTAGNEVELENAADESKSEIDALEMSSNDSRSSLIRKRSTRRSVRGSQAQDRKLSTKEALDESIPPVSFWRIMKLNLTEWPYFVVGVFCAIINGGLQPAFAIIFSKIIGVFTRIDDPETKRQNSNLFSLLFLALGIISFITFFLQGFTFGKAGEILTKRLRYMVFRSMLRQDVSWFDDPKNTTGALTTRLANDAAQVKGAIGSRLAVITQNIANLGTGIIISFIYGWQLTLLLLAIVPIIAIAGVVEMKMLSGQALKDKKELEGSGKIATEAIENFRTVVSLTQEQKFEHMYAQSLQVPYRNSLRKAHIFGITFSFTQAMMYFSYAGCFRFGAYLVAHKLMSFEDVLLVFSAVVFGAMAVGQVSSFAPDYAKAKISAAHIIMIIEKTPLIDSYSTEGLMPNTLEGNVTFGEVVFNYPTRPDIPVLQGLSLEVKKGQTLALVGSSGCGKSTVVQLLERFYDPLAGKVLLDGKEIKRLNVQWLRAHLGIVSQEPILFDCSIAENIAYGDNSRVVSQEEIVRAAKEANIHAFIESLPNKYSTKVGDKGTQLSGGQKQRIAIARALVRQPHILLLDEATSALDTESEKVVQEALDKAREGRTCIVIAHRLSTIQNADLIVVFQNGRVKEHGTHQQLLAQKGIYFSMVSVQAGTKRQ", "assay": "MDCK-MDR1 cell monolayer drug transport assay (P-gp efflux ratio)", "type": "in vitro ADME", "details": "pH 7.4, MDCK-MDR1 cells; for efflux ratio at 2 h, 1 µM: 1 uM concentration of compound, read-out: Pgp Efflux Ratio, 1 uM; for efflux ratio at 2 h, 0.1 µM: 0.1 uM concentration of compound (denoted by **), read-out: Pgp Efflux Ratio", "description": "The potential for compounds prepared according to the examples to be substrates of P-gp was evaluated using in vitro on Multidrug Resistance Mutation 1-Mardin-Darby Canine Kidney (MDCK-MDR1)) (Mardin-Darby Canine Kidney) cell monolayers overexpressing P-gp grown on permeable supports.\nPreparation for cell seeding: MDCK-MDR1 cell culture medium consisting of Dulbecco's Modified Eagle's Medium (DMEM) with high glucose and L-glutamine supplemented with: 10% FBS, 0.1 mg/mL of streptomycin, 0.6 μg/mL of Kanamycin sulfate and 100 units of penicillin was prepared. 50 μL of culture medium was added to each well of the Transwell insert. The Transwell insert was removed from the reservoir and 25 mL of culture medium was added. After incubation at 37° C., 5% CO2 for 1 hour, the plates were ready for cell seeding. The cells were cultivated in T-75 flasks in a cell culture incubator set at 37° C., 5% CO2, 95% relative humidity until they reached 80-90% confluence before detaching and splitting. The cultivated cells were rinsed in T-75 flasks with 5 mL PBS and aspirated off, and then 1.5 mL trypsin/EDTA was added and incubated at 37° C. for approximately 5 to 10 minutes or until the cells detach and float. The trypsin/EDTA was inactived by adding excess serum containing medium. The cell suspension was transferred to a conical tube and the cells pelleted by centrifugation at 120×g for 10 minutes. The cells were resuspended in seeding medium at a density of 1.56×10^6 cells/mL. This cell concentration was used to seed 5.45×10^5 cells/cm^2.\nSeeding and feeding of MDCK-MDR1 cells into transwell plates: 50 μL of the above cell suspension was added to each well of a previously prepared Transwell plate and the plate was incubated for 4-8 days, replacing the medium every other day beginning no sooner than 48 hours after initial plating. The medium must be replaced on the day before conducting the experiment, and the procedure for medium changes was carried out as follows. The plate was removed from the incubator and placed in a hood. The medium was aspirated from a reservoir and each Transwell was inserted. 100 μL of culture medium was added to each well of the Transwell inserts and 25 mL of culture medium to reservoir tray. The plate was returned to the incubator.\nAssessment of cell monolayer integrity: When the 4-day cultured MDCK-MDR1 cells reached confluence and were differentiated, the medium was removed from the reservoir and Transwell inserts. 100 μL of prewarmed culture medium was added to each transwell insert and 25 mL was added to the reservoir tray. The electrical resistance across the monolayer was measured using a Millicell Epithelial Volt-Ohm measuring system. The electrical resistance for each well was measured and then the plate was returned to the incubator. TEER values were calculated using this formula: TEER measurement (ohms)×Area of membrane (cm2)=TEER value (ohm cm2). Any monolayer with a TEER value <42 ohms·cm2, indicating poor monolayer formation, was discarded.\nPerforming the drug transport assay: The MDCK-MDR1 plate was removed from the incubator and the monolayer was washed, exchanging the volume two times using pre-warmed HBSS (Hank's balanced salt solution) (10 mM HEPES, pH 7.4). The plate was then incubated at 37° C. for 30 minutes. A 1 μM compound working solution was prepared as follows: Added […] of stock solution (10 mM in DMSO) of test compound and control compounds (Metoprolol, Prazosin and Imatinib) in one 96 well plate, then added 98 μL of DMSO into the same well to obtain 0.2 mM stock solutions (note a stock solution was further diluted 1:10 for eventually making a 0.1 uM compound working solution). Transfered 3 μL of 0.2 mM solution into 597 μL of transport buffer in one 96 well plate to prepare the 1 μM compound working solution. The plate was shaken at 1000 rpm for 10 min."}},
  "data": [
    {"compound": "COC(=O)N1CC(c2cnn(-c3ccc(C)c(NC(=O)c4cnn5ccc(N6CCOCC6)cc45)c3)n2)C1", "note": "[Example 80, methyl 3-(2-(4-methyl-3-(5-morpholinopyrazolo[1,5-a]pyridine-3-carboxamido)phenyl)-2H-1,2,3-triazol-4-yl)azetidine-1-carboxylate]", "values": [
      {"measurement": "IC50", "setting": "wild type c-kit", "value": 9.2, "unit": "nM"},
      {"measurement": "efflux ratio at 2 h, 1 µM", "setting": "[1]", "value": 4}
    ]},
    {"compound": "COC(=O)N1CC(n2nnc(-c3ccc(C)c(NC(=O)c4cnn5ccc(COCC(F)F)cc45)c3)n2)C1", "note": "[Example 162, methyl 3-(5-(3-(5-((2,2-difluoroethoxy)methyl)pyrazolo[1,5-a]pyridine-3-carboxamido)-4-methylphenyl)-2H-tetrazol-2-yl)azetidine-1-carboxylate]", "values": [
      {"measurement": "IC50", "setting": "wild type c-kit", "value": 18, "unit": "nM"},
      {"measurement": "efflux ratio at 2 h, 1 µM", "setting": "[1]", "value": 5.3}
    ]},
    {"compound": "COC[C@@H](O)Cn1cc(-c2ccn3ncc(C(=O)Nc4cc(-c5nnn(C6CC6)n5)c(F)cc4C)c3c2)c(C2CC2)n1", "note": "[Example 257, (S)-5-(3-cyclopropyl-1-(2-hydroxy-3-methoxypropyl)-1H-pyrazol-4-yl)-N-(5-(2-cyclopropyl-2H-tetrazol-5-yl)-4-fluoro-2-methylphenyl)pyrazolo[1,5-a]pyridine-3-carboxamide]", "values": [
      {"measurement": "IC50", "setting": "wild type c-kit", "value": 0.7, "unit": "nM"},
      {"measurement": "efflux ratio at 2 h, 1 µM", "setting": "[1]", "value": 8.9}
    ]},
    {"compound": "C[C@](O)(CO)Cn1cc(-c2ccn3ncc(C(=O)Nc4cc(-c5nnn(C6CC6)n5)ccc4Cl)c3c2)cn1", "note": "[Example 266, (R)-N-(2-chloro-5-(2-cyclopropyl-2H-tetrazol-5-yl)phenyl)-5-(1-(2,3-dihydroxy-2-methylpropyl)-1H-pyrazol-4-yl)pyrazolo[1,5-a]pyridine-3-carboxamide]", "values": [
      {"measurement": "IC50", "setting": "wild type c-kit", "value": 0.3, "unit": "nM"},
      {"measurement": "efflux ratio at 2 h, 1 µM", "setting": "[1]", "value": 3.4}
    ]},
    {"compound": "COC[C@@H](O)Cn1cc(-c2ccn3ncc(C(=O)Nc4cc(-c5nnn(C6CC6)n5)c(C)cc4Cl)c3c2)cn1", "note": "[Example 252, (S)-N-(2-chloro-5-(2-cyclopropyl-2H-tetrazol-5-yl)-4-methylphenyl)-5-(1-(2-hydroxy-3-methoxypropyl)-1H-pyrazol-4-yl)pyrazolo[1,5-a]pyridine-3-carboxamide]", "values": [
      {"measurement": "IC50", "setting": "wild type c-kit", "value": 3.7, "unit": "nM"},
      {"measurement": "efflux ratio at 2 h, 1 µM", "setting": "[1]", "value": 5.1}
    ]},
    {"compound": "Cc1cc(F)c(-c2nnn(C3CC3)n2)cc1NC(=O)c1cnn2ccc(-c3cn(CC(C)(C)O)nc3C3CC3)cc12", "note": "[Example 241, 5-(3-cyclopropyl-1-(2-hydroxy-2-methylpropyl)-1H-pyrazol-4-yl)-N-(5-(2-cyclopropyl-2H-tetrazol-5-yl)-4-fluoro-2-methylphenyl)pyrazolo[1,5-a]pyridine-3-carboxamide]", "values": [
      {"measurement": "IC50", "setting": "wild type c-kit", "value": 0.2, "unit": "nM"},
      {"measurement": "efflux ratio at 2 h, 0.1 µM", "setting": "[1]", "value": 6.3}
    ]},
    {"compound": "Cc1cnn(-c2ccc(C)c(NC(=O)c3cnn4ccc(-c5cnn(CCO)c5)cc34)c2)n1", "note": "[Example 57, 5-(1-(2-hydroxyethyl)-1H-pyrazol-4-yl)-N-(2-methyl-5-(4-methyl-2H-1,2,3-triazol-2-yl)phenyl)pyrazolo[1,5-a]pyridine-3-carboxamide]", "values": [
      {"measurement": "IC50", "setting": "wild type c-kit", "value": 4, "unit": "nM"},
      {"measurement": "efflux ratio at 2 h, 1 µM", "setting": "[1]", "value": 3.4}
    ]},
    {"compound": "Cc1ccc(-n2nnc(C3CC3)n2)cc1NC(=O)c1cnn2ccc(-c3cnn(CC(C)(C)O)c3)cc12", "note": "[Example 225, N-(5-(5-cyclopropyl-2H-tetrazol-2-yl)-2-methylphenyl)-5-(1-(2-hydroxy-2-methylpropyl)-1H-pyrazol-4-yl)pyrazolo[1,5-a]pyridine-3-carboxamide]", "values": [
      {"measurement": "IC50", "setting": "wild type c-kit", "value": 1.7, "unit": "nM"},
      {"measurement": "efflux ratio at 2 h, 1 µM", "setting": "[1]", "value": 3.3}
    ]},
    {"compound": "Cc1cnn(-c2ccc(C)c(NC(=O)c3cnn4ccc(-c5cnn(C[C@@H]6CNCCO6)c5)cc34)c2)n1", "note": "[Example 204, (S)—N-(2-methyl-5-(4-methyl-2H-1,2,3-triazol-2-yl)phenyl)-5-(1-(morpholin-2-ylmethyl)-1H-pyrazol-4-yl)pyrazolo[1,5-a]pyridine-3-carboxamide]", "values": [
      {"measurement": "IC50", "setting": "wild type c-kit", "value": 10.1, "unit": "nM"},
      {"measurement": "efflux ratio at 2 h, 1 µM", "setting": "[1]", "value": 62.1}
    ]},
    {"compound": "COC[C@@H](O)Cn1nc(C)c(-c2ccn3ncc(C(=O)Nc4cc(-c5nnn(C)n5)ccc4C)c3c2)c1C", "note": "[Example 245, (S)-5-(1-(2-hydroxy-3-methoxypropyl)-3,5-dimethyl-1H-pyrazol-4-yl)-N-(2-methyl-5-(2-methyl-2H-tetrazol-5-yl)phenyl)pyrazolo[1,5-a]pyridine-3-carboxamide]", "values": [
      {"measurement": "IC50", "setting": "wild type c-kit", "value": 0.8, "unit": "nM"},
      {"measurement": "efflux ratio at 2 h, 1 µM", "setting": "[1]", "value": 2.3}
    ]},
    {"compound": "COC(=O)N1CC(n2nnc(-c3ccc(C)c(NC(=O)c4cnn5ccc(NCC(C)(F)F)cc45)c3)n2)C1", "note": "[Example 92, methyl 3-(5-(3-(5-((2,2-difluoropropyl)amino)pyrazolo[1,5-a]pyridine-3-carboxamido)-4-methylphenyl)-2H-tetrazol-2-yl)azetidine-1-carboxylate]", "values": [
      {"measurement": "IC50", "setting": "wild type c-kit", "value": 22.1, "unit": "nM"},
      {"measurement": "efflux ratio at 2 h, 1 µM", "setting": "[1]", "value": 11.4}
    ]},
    {"compound": "COCCNc1cc2c(C(=O)Nc3cc(-c4nnn(C5CN(C(=O)OC)C5)n4)ccc3C)cnn2cc1F", "note": "[Example 171, methyl 3-(5-(3-(6-fluoro-5-((2-methoxyethyl)amino)pyrazolo[1,5-a]pyridine-3-carboxamido)-4-methylphenyl)-2H-tetrazol-2-yl)azetidine-1-carboxylate]", "values": [
      {"measurement": "IC50", "setting": "wild type c-kit", "value": 34.3, "unit": "nM"},
      {"measurement": "efflux ratio at 2 h, 1 µM", "setting": "[1]", "value": 6}
    ]},
    {"compound": "Cc1cc(Cl)c(NC(=O)c2cnn3ccc(-c4cnn(CC(C)(C)O)c4)cc23)cc1-c1nnn(C2CC2)n1", "note": "[Example 227, N-(2-chloro-5-(2-cyclopropyl-2H-tetrazol-5-yl)-4-methylphenyl)-5-(1-(2-hydroxy-2-methylpropyl)-1H-pyrazol-4-yl)pyrazolo[1,5-a]pyridine-3-carboxamide]", "values": [
      {"measurement": "IC50", "setting": "wild type c-kit", "value": 1.9, "unit": "nM"},
      {"measurement": "efflux ratio at 2 h, 0.1 µM", "setting": "[1]", "value": 5}
    ]},
    {"compound": "Cc1cc(Cl)c(NC(=O)c2cnn3ccc(-c4cn(CC5(O)CCOCC5)nc4C)cc23)cc1-c1nnn(C2CC2)n1", "note": "[Example 235, N-(2-chloro-5-(2-cyclopropyl-2H-tetrazol-5-yl)-4-methylphenyl)-5-(1-((4-hydroxytetrahydro-2H-pyran-4-yl)methyl)-3-methyl-1H-pyrazol-4-yl)pyrazolo[1,5-a]pyridine-3-carboxamide]", "values": [
      {"measurement": "IC50", "setting": "wild type c-kit", "value": 1.6, "unit": "nM"},
      {"measurement": "efflux ratio at 2 h, 1 µM", "setting": "[1]", "value": 3.9}
    ]},
    {"compound": "COCCNc1ccn2ncc(C(=O)Nc3cc(-c4nnn([C@H]5C[C@@H](C(F)(F)F)C5)n4)ccc3C)c2c1", "note": "[Example 119, 5-((2-methoxyethyl)amino)-N-(2-methyl-5-(2-((1s,3s)-3-(trifluoromethyl)cyclobutyl)-2H-tetrazol-5-yl)phenyl)pyrazolo[1,5-a]pyridine-3-carboxamide or 5-((2-methoxyethyl)amino)-N-(2-methyl-5-(2-((1r,3r)-3-(trifluoromethyl)cyclobutyl)-2H-tetrazol-5-yl)phenyl)pyrazolo[1,5-a]pyridine-3-carboxamide]", "values": [
      {"measurement": "IC50", "setting": "wild type c-kit", "value": 2.3, "unit": "nM"},
      {"measurement": "efflux ratio at 2 h, 1 µM", "setting": "[1]", "value": 3.9}
    ]},
    {"compound": "Cc1ccc(-c2nnn(C3CC3)n2)cc1NC(=O)c1cnn2ccc(-c3c(C)nn(CCO)c3C)cc12", "note": "[Example 208, N-(5-(2-cyclopropyl-2H-tetrazol-5-yl)-2-methylphenyl)-5-(1-(2-hydroxyethyl)-3,5-dimethyl-1H-pyrazol-4-yl)pyrazolo[1,5-a]pyridine-3-carboxamide]", "values": [
      {"measurement": "IC50", "setting": "wild type c-kit", "value": 0.4, "unit": "nM"},
      {"measurement": "efflux ratio at 2 h, 1 µM", "setting": "[1]", "value": 4.1}
    ]},
    {"compound": "Cc1ccc(-c2nnn(C(C)C)n2)cc1NC(=O)c1cnn2ccc(-c3cnn(CCO)c3)cc12", "note": "[Example 49, 5-(1-(2-hydroxyethyl)-1H-pyrazol-4-yl)-N-(5-(2-isopropyl-2H-tetrazol-5-yl)-2-methylphenyl)pyrazolo[1,5-a]pyridine-3-carboxamide]", "values": [
      {"measurement": "IC50", "setting": "wild type c-kit", "value": 1.3, "unit": "nM"},
      {"measurement": "efflux ratio at 2 h, 1 µM", "setting": "[1]", "value": 14}
    ]}
  ]
}
